Data set [1] concerns the target T1, HIV-1 reverse transcriptase, wild type (WT) (Human immunodeficiency virus type 1 (BRU ISOLATE), UniProt P03367).
T1 construct: recombinant clone pBRTprtl+ (vector pIBI21, lac promoter) in E. coli JM109
In words: Reverse transcriptase (RT) assay, wild type enzyme (RNA-dependent DNA polymerase activity). The data set is classed as biochemical, Human Immunodeficiency Virus (HIV-1), LAV strain. As to conditions: read-out: RT (WT) Assay % inh. (1 μM). The text has this: Utilizing the Reverse Transcriptase (RT) Assay described below, compounds can be tested for their ability to inhibit the RNA-dependent DNA polymerase activity of HIV-1 RT. Certain specific compounds described in the Examples which appear below, were so tested.
Among the enzymes for which Human Immunodeficiency Virus (HIV-1) encodes is a reverse transcriptase (1), so-named because it transcribes a DNA copy from an RNA template. This activity can be quantitatively measured in a cell-free enzyme assay, which has been previously described (2), and is based upon the observation that reverse transcriptase is able to use a synthetic template [poly r(C) primed with oligo d(G)] to transcribe a radio-labelled, acid-precipitable DNA strand utilizing ^3 H-dGTP as a substrate. The assay described below utilizes the wild type (WT) enzyme, which is the predominant form of the enzyme observed in patients infected with HIV-1. Utilization of the mutant RT enzyme (Y181C, prepared by site-directed mutagenesis in which the tyrosine residue at codon 181 has been replaced by a cysteine residue) and analogous assay conditions allows compounds to be evaluated for their effectiveness at inhibiting this mutant enzyme. […]

The next data set in a line: MTT assay (cytotoxicity). The data set is classed as cell-based. As to conditions: human; H9 cells, five days. On the procedure:
In order to roughly assess the cytotoxicity of the compounds provided by the invention, several such compounds were tested in the MTT Assay described below. Compounds having a relatively high CC50 are preferred.
The MTT [3-(4,5-dimethylthiazol-2-yl)-2,5 diphenyl tetrazolium bromide) assay is based on cleavage of tetrazolium bromide by metabolically active cells, resulting in a highly quantitative blue color. This assay has been previously described (1) but has been optimized for the purposes of the testing reported herein.
The H9 cell line (2), an established human lymphoma suspension cell line grown in RPMI 1640 supplemented with 10% fetal bovine serum, is used as the target cell line in the assay. Cells (100 μL) are plated in microtest plate wells at a concentration of 10^5 cells per mL in the presence of varying concentrations of inhibitor. The cells are incubated at 37° C. in a humidified CO2 incubator. Five days later, 20 μL of MTT (5 mg/mL in RPMI 1640, sonicated, 0.2 micron filtered, and stored at 4° C.) is added to each well. After 4 hours additional incubation at 37° C., 60 μL of Triton-X is added to each well and thoroughly mixed to aid the solubilization of the crystals. Absolute ethanol (5 μL) is added to each well and the resulting mixture is incubated for 30 minutes at 60° C. and immediately read on a plate reader (Dynatech) at a wavelength of 570 nm. […]

With `CCN1c2ncccc2-c2ncc(C)n2-c2ccc(-c3cn[nH]c3)nc21` [Example 1, 8-Ethyl-1-methyl-10-(4-pyrazolyl)imidazo[2',3':6,5]dipyrido[3,2-b:2',3'-e][1,4]diazepine], in data set [1], the inhibition at 1 µM was found to be 95%. The molecule also returned a CC50 at 120 h in the data set “MTT assay (cytotoxicity)” above 100 µM.
